In article PMC11123929, “A Comparative Study and Prediction of the Ex Vivo Permeation of Six Vaginally Administered Drugs across Five Artificial Membranes and Vaginal Tissue” (Molecules, 2024):

Tests used:
[1] = Franz diffusion cell in vitro permeability, cellulose membrane; settings: for Cumulative Amount Permeated, Cellulose (Hydrophilic): after 8 h, mean ± SD (n = 3); for Papp (experimental, in vitro): cellulose membrane, Table 6, compared with PLS prediction; for Papp at 8 h: pH 7.4; for permeation order of the substance, Cellulose (Hydrophilic): rank among the six drugs by cumulative amount after 8 h
Source text: (§1) There are many membranes available on the market that are grouped as cellulosic and polymeric. Taking into account those that are more convenient and economical, two synthetic membranes and their combinations were used. Synthetic PVDF (polyvinylidene difluoride) and cellulose acetate (Table S2) membranes were pre-treated according to the supplier’s instructions. Cellulose membranes were further treated to acquire their lipophilic properties. Thus, they were placed on a flat glass surface and completely coated with IPM (isopropyl myristate) solution. The cellulose membrane was allowed to incubate in the IPM solution for 30 min. After impregnation, the excess IPM solution was drained off, and the membrane was used for the in vitro experiments. To ensure that the procedure was carried out successfully, the cellulose membrane was weighed before and after pretreatment.
(§2) The in vitro permeability profile of each compound was evaluated using the Franz diffusion cell setup (PermeGear, Hellertown, PA, USA). Five distinct artificial membranes were placed between the donor (upper) and receiver (lower) chambers of cells, with an effective diffusion area of 4.9 cm^2 and a receptor volume of 20 mL; 1 mL of APIs solutions were placed in the donor compartment, which was sealed with Parafilm® to prevent any loss of moisture. The acceptor contained degassed PBS at pH 7.4. The procedure was performed under agitation at 90 rpm and at a temperature of 37 °C ± 0.2 °C.
(§3) At specified intervals (t = 2, 3, 4, 6, and 8 h), 0.5 mL of the samples was taken from the receptor compartment and replaced with an equal volume of freshly prewarmed receptor medium. The concentration of each API was quantified using the appropriate HPLC method (Section 4.1) without sample pretreatment. Blanks containing PBS were pretreated with the same procedure. Each sample was analyzed in triplicate, and its cumulative release over time was plotted (Figure 2). The steady-state flux (Jss) was determined by plotting the permeation of the API per unit area (μg/cm^2) against time (h) and calculating the slope of the linear portion of the resulting line. Equation (1) was applied to calculate the apparent permeability coefficient (cm/h) (Paap).

[2] = Franz diffusion cell in vitro permeability, hybrid IPM-cellulose membrane
Source text: as §1, §2, §3

[3] = cited from earlier work; for PSA: ref Pubchem [1]
[4] = Ex vivo permeability in Franz diffusion cell, cow vaginal tissue
Protocol: Ex vivo experiments were conducted on cow vaginal mucosa sourced from a local slaughterhouse. Tissues with an exposure area of 0.19 cm^2 were placed in a Franz diffusion cell with the epithelial mucosa side facing the donor compartment. In the donor compartment, 200 μL of API’s solution in VFS (pH 4.5) was added (37 °C ± 0.2 °C), while the acceptor was filled with 5 mL of PBS at pH 7.4 (constant stirring at 100 rpm).
Samples were centrifuged at 2000× g for 10 min, and supernatants were analyzed using HPLC as described in Section 4.1.
The procedure for extracting the drug from the tissue was as follows: after the experiment was completed, each tissue was carefully removed from the Franz cell and immersed in 5 mL of methanol. It was then sonicated for 30 min, followed by 10 min of vertexing, another 30 min in the sonicator, and 10 min of vertexing. Finally, the samples were centrifuged for 20 min at 5000× g, and the supernatant was collected for analysis.

[5] = Franz diffusion cell in vitro permeability, IPM-impregnated cellulose membrane; settings: for Cumulative Amount Permeated, Impregnated IPM: after 8 h, mean ± SD (n = 3); for Papp at 8 h: pH 7.4; for permeation order of the substance, Impregnated IPM: rank among the six drugs by cumulative amount after 8 h
Source text: as §1, §2, §3

[6] = Franz diffusion cell in vitro permeability, PVDF membrane; settings: for Cumulative Amount Permeated, PVDF (Hydrophobic): after 8 h, mean ± SD (n = 3); for Papp at 8 h: pH 7.4; for permeation order of the substance, PVDF (Hydrophobic): rank among the six drugs by cumulative amount after 8 h
Source text: as §1, §2, §3

[7] = Retention on reversed-phase C4 HPLC column as indication of tissue penetration; format: physicochemical; settings: ACE C4 150 × 4.6 mm, MeOH-H2O 10:90, 0.5 mL/min, 40 °C
Protocol: Under the given conditions, it was assumed that the stationary phase simulates the tissue while the aqueous mobile phase represents the surrounding space. […] The analysis was carried out under isocratic conditions with a flow rate of 0.5 mL/min and a mobile phase consisting of MeOH-H2O at 10:90 (v/v).

[8] = Franz diffusion cell in vitro permeability, hybrid PVDF-cellulose membrane
Source text: as §1, §2
as §3, with “Blanks containing PBS were pretreated with the same procedure.” left out, “Equation (1) was applied to calculate the apparent permeability coefficient (cm/h) (Paap).” left out

[9] = cited from earlier work
[10] = rank among the six drugs by cumulative amount after 8 h

Question: With `Clc1ccc(COC(Cn2ccnc2)c2ccc(Cl)cc2Cl)cc1` (stereo not shown) [ECO, econazole] as the compound, how does the “Papp value / permeability / diffusion profile in cellulose membrane” value [1] read?
Answer: negligible

Question: What about the “Cumulative Amount Permeated, Cellulose (Hydrophilic)” value [1] of the same compound?
Answer: 1.7 μg/cm^2

Question: What about the Papp (experimental, in vitro) [1] of the same compound?
Answer: 0.239 ×10⁻⁶ cm/s

Question: And the Papp at 8 h [1]?
Answer: 0.239 ×10⁻⁶ cm/s

Question: And the “permeation order of the substance, Cellulose (Hydrophilic)” value (shortened to “permeation order … (Hydrophilic)”) [1]?
Answer: 5th

Question: What about the “diffusion profile in cellulose-IPM membrane” value [2] of the same compound?
Answer: zero

Question: What about the “Tangible aqueous solubility (descriptive term)” value ([3]; ref European Pharmacopeia) of the same compound?
Answer: very slightly soluble

Question: And the PSA [3]?
Answer: 27 Å2

Question: And the “tissue permeability / diffusion profile in vaginal tissue, ex vivo” value (from here on “tissue permeability / diffusion profile”) [4]?
Answer: zero

Question: And the “Acceptor's Mass” value ([4]; cow, 8 h)?
Answer: 0 mg

Question: And the “Final Mass Donor” value ([4]; cow, 8 h)?
Answer: 0.2 (±0.01) mg

Question: And the “Tissue Extraction” value ([4]; cow, 8 h)?
Answer: 0.01 (±0.001) mg

Question: What about the “Cumulative Amount Permeated, Impregnated IPM” value [5] of the same compound?
Answer: 0.92 μg/cm^2

Question: What about the Papp at 8 h [5] of the same compound?
Answer: 0.0389 ×10⁻⁶ cm/s

Question: And the “permeation order of the substance, Impregnated IPM” value [5]?
Answer: 4th

Question: What about the “Cumulative Amount Permeated, PVDF (Hydrophobic)” value [6] of the same compound?
Answer: 15.3 μg/cm^2

Question: What about the Papp at 8 h [6] of the same compound?
Answer: 0.0417 ×10⁻⁶ cm/s

Question: And the “permeation order of the substance, PVDF (Hydrophobic)” value (from here on “permeation order … (Hydrophobic)”) [6]?
Answer: 6th

Question: And the “Retention time (tr) in column C4” value [7]?
Answer: 9.94 min

Question: Which results are given for `CCN(CC)CC(=O)Nc1c(C)cccc1C` [LIDO, lidocaine]?
Answer: Acceptor's Mass ([4]; cow, 8 h): 0.53 (±0.09) mg; Final Mass Donor ([4]; cow, 8 h): 0.9 (±0.1) mg; Tissue Extraction ([4]; cow, 8 h): 0.5 (±0.09) mg

Question: Which “Cumulative Amount Permeated, Cellulose (Hydrophilic)” value [1] does the source give for `Cc1ncc([N+](=O)[O-])n1CCO` [METRO, metronidazole] here?
Answer: 3976.4 μg/cm^2

Question: What about the Papp (experimental, in vitro) [1] of the same compound?
Answer: 6.39 ×10⁻⁶ cm/s

Question: And the Papp at 8 h [1]?
Answer: 6.39 ×10⁻⁶ cm/s

Question: And the “permeation order … (Hydrophilic)” value [1]?
Answer: 1st

Question: And the “Cumulative Amount Permeated, IPM-Cellulose” value ([2]; after 8 h, mean ± SD (n = 3))?
Answer: 307.3 μg/cm^2

Question: What about the Papp at 8 h ([2]; pH 7.4) of the same compound?
Answer: 0.556 ×10⁻⁶ cm/s

Question: What about the “permeation order of the substance, IPM-Cellulose” value [2, 10] of the same compound?
Answer: 3rd

Question: What about the “Tangible aqueous solubility (descriptive term)” value ([3]; ref European Pharmacopeia) of the same compound?
Answer: very soluble

Question: And the “Tangible aqueous solubility (value in brackets)” value ([3]; ref European Pharmacopeia)?
Answer: 5920 µg/mL

Question: And the PSA [3]?
Answer: 83.87 Å2

Question: And the Papp at 8 h, 10 mg/mL ([4]; cow)?
Answer: 12.8 ×10⁻⁶ cm/s

Question: And the “Acceptor's Mass” value ([4]; cow, 8 h)?
Answer: 0.65 (±0.08) mg

Question: And the “Final Mass Donor” value ([4]; cow, 8 h)?
Answer: 0.01 (±0.001) mg

Question: What about the “Tissue Extraction” value ([4]; cow, 8 h) of the same compound?
Answer: 1.4 (±0.2) mg

Question: What about the “Cumulative Amount Permeated, Tissue” value ([4]; cow, 8 h, 10 mg/mL) of the same compound?
Answer: 3419.5 μg/cm^2

Question: What about the “permeation order of the substance, Tissue” value ([4]; cow, 8 h, 10 mg/mL) of the same compound?
Answer: 1st

Question: And the “Cumulative Amount Permeated, Impregnated IPM” value [5]?
Answer: 2373.1 μg/cm^2

Question: What about the Papp at 8 h [5] of the same compound?
Answer: 3.89 ×10⁻⁶ cm/s

Question: And the “permeation order of the substance, Impregnated IPM” value [5]?
Answer: 1st

Question: What about the “Cumulative Amount Permeated, PVDF (Hydrophobic)” value [6] of the same compound?
Answer: 2008.4 μg/cm^2

Question: What about the Papp at 8 h [6] of the same compound?
Answer: 2.5 ×10⁻⁶ cm/s

Question: What about the “permeation order … (Hydrophobic)” value [6] of the same compound?
Answer: 1st

Question: And the “Cumulative Amount Permeated, PVDF-Cellulose” value ([8]; after 8 h, mean ± SD (n = 3))?
Answer: 370.2 μg/cm^2

Question: What about the Papp at 8 h ([8]; pH 7.4) of the same compound?
Answer: 1.11 ×10⁻⁶ cm/s

Question: What about the “permeation order of the substance, PVDF-Cellulose” value [8, 10] of the same compound?
Answer: 3rd

Question: What about the “Retention time (tr) in column C4” value [7] of the same compound?
Answer: 3.93 min

Question: For `Clc1ccc(COC(Cn2ccnc2)c2ccc(Cl)cc2Cl)c(Cl)c1` (stereo not shown) [MICO, miconazole], which “Papp value / permeability / diffusion profile in cellulose membrane” value [1] is on record?
Answer: negligible and zero

Question: What about the Papp (experimental, in vitro) [1] of the same compound?
Answer: 0 ×10⁻⁶ cm/s

Question: What about the “diffusion profile in cellulose-IPM membrane” value [2] of the same compound?
Answer: zero

Question: What about the “Tangible aqueous solubility (descriptive term)” value ([3]; ref European Pharmacopeia) of the same compound?
Answer: very slightly soluble

Question: What about the PSA [3] of the same compound?
Answer: 27 Å2

Question: What about the “tissue permeability / diffusion profile” value [4] of the same compound?
Answer: zero

Question: And the “Acceptor's Mass” value ([4]; cow, 8 h)?
Answer: 0 mg

Question: And the “Final Mass Donor” value ([4]; cow, 8 h)?
Answer: 0.26 (±0.02) mg

Question: What about the “Tissue Extraction” value ([4]; cow, 8 h) of the same compound?
Answer: 0 mg

Question: What about the “Cumulative Amount Permeated, PVDF (Hydrophobic)” value [6] of the same compound?
Answer: 33.4 μg/cm^2

Question: What about the Papp at 8 h [6] of the same compound?
Answer: 0.806 ×10⁻⁶ cm/s

Question: What about the “permeation order … (Hydrophobic)” value [6] of the same compound?
Answer: 5th

Question: What about the “Retention time (tr) in column C4” value [7] of the same compound?
Answer: 10.2 min

Question: For `CCCCCCCCCc1ccc(OCCOCCOCCOCCOCCOCCOCCOCCOCCO)cc1` [NONO, nonoxynol-9], which “Papp value / permeability / diffusion profile in cellulose membrane” value [1] is on record?
Answer: negligible

Question: And the “Cumulative Amount Permeated, Cellulose (Hydrophilic)” value [1]?
Answer: 20.1 μg/cm^2

Question: And the Papp (experimental, in vitro) [1]?
Answer: 0.0556 ×10⁻⁶ cm/s

Question: And the “permeation order … (Hydrophilic)” value [1]?
Answer: 4th

Question: What about the “diffusion profile in cellulose-IPM membrane” value [2] of the same compound?
Answer: zero

Question: What about the “Tangible aqueous solubility (descriptive term)” value ([3]; ref European Pharmacopeia) of the same compound?
Answer: miscible with H2O

Question: And the PSA [3]?
Answer: 103.3 Å2

Question: What about the “tissue permeability / diffusion profile” value [4] of the same compound?
Answer: does not penetrate the vaginal tissue at all and zero

Question: And the “Tissue Extraction” value ([4]; drug extracted from tissue with methanol after the experiment)?
Answer: 0.15 (±0.05) mg

Question: And the “Acceptor's Mass” value ([4]; ex vivo, end of experiment)?
Answer: 0 mg

Question: What about the “Final Mass Donor” value ([4]; ex vivo, end of experiment, mean ± SD (n = 3)) of the same compound?
Answer: 1.85 (±0.2) mg

Question: What about the “Cumulative Amount Permeated, PVDF (Hydrophobic)” value [6] of the same compound?
Answer: 1752.2 μg/cm^2

Question: And the “permeation order … (Hydrophobic)” value [6]?
Answer: 2nd

Question: And the “Retention time (tr) in column C4” value [7]?
Answer: 39.48 min

Question: For `O=[N+]([O-])OCC(CO[N+](=O)[O-])O[N+](=O)[O-]` [nitroglycerin], which “log P” value [9] is on record?
Answer: 1.6
